One data set concerns six human cell types. The experiment in a line: Cytotoxicity analysis, resazurin viability assay. The method, then: CRV431 cytotoxicity was evaluated in cell culture with six human cell types: Jurkat E6.1 lymphocyte cell line (88042803, person; Sigma-Aldrich), HepaRG hepatocyte cell line (HPRGC10, person; Life Technologies), primary renal epithelial cells (CC-2556, unknown gender; Lonza), primary dermal fibroblasts (CC-2511, person; Lonza), primary bronchial smooth muscle cells (CC-2576, person; Lonza), and primary umbilical vein endothelial cells (CC-2519, person; Lonza). Jurkat cells (suspension cell type) were plated at 35,000 cells/well in 96-well plates. All other cell types (adherent cell types) were plated 2500–10,000 cells/well (adherent cell types) in GelCol bovine collagen-coated (5167; Advanced Biomatrix) 96-well Nunc Edge 2.0 evaporation barrier plates (14387223; Thermo Scientific). Cell culture medium and culture conditions followed suppliers’ recommendations. […] Cell viability was assessed at the end of the 3-day culture period using the In Vitro Toxicology Assay (Tox8-1KT; Sigma-Aldrich). In this assay the oxidoreduction indicator dye, resazurin, is colorometrically converted in proportion to the number of viable cells and measured by absorbance or fluorescence. Fluorescence was measured (excitation 540 nm; emission 590 nm) with a BMG Polarstar Galaxy Microplate Reader.

The target of a further data set is OAT3 (Homo sapiens, UniProt Q8TCC7). The experiment in a line: Drug transporter inhibition, OAT3. The conditions noted are these: OAT3, HEK293.
Chain of OAT3 (Q8TCC7 whole entry): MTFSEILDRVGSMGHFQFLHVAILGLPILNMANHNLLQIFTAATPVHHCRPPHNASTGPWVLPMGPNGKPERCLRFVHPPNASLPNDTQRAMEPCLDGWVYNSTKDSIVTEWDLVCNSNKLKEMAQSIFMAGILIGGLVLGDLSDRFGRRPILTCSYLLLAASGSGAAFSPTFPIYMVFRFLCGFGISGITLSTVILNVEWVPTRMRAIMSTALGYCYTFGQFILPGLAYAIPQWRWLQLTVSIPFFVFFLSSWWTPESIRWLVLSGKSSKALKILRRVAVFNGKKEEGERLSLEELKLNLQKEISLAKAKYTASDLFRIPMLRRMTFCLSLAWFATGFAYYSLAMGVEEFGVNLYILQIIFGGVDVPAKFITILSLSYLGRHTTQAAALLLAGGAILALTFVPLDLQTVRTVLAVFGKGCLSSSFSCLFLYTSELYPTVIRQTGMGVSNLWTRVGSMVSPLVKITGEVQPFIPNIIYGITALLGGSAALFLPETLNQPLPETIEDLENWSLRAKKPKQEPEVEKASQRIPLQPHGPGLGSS
The target in a further data set is T1, MATE-2 (Homo sapiens, UniProt Q86VL8).
T1 construct: expressed in transfected cells
T1 sequence (Q86VL8 whole entry): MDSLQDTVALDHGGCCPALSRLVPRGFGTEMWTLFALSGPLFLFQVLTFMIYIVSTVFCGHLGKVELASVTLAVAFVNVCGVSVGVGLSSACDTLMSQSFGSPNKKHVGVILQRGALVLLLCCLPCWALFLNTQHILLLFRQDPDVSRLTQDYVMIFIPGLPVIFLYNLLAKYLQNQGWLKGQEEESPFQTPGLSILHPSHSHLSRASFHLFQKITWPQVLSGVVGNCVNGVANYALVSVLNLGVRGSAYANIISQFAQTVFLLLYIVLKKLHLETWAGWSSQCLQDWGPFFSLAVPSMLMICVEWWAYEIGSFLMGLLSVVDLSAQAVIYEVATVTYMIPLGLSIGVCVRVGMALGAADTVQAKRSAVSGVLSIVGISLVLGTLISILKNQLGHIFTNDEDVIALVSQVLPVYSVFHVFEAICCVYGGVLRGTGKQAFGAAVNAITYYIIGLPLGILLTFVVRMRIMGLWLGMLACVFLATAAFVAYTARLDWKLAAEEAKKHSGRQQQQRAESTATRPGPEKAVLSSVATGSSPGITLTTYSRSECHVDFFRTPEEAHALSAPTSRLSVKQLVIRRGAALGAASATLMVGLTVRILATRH
The data set can be described thus: Drug transporter inhibition, MATE-2. The conditions noted are these: MATE-2, HEK293. Type of data set: in vitro ADME.

A further data set has as its target T2, recombinant Cyp A (PPIA) (Homo sapiens, UniProt P62937).
T2 construct: purchased R&D Systems 3589-CAB
The experiment in a line: Cyclophilin isomerase assay, Cyp A. Type of data set: biochemical. The method, then: Cyclophilin isomerase activity was measured with an assay described by [Kofron et al. (1991)] with adaptations to 96-well plates. In this assay cyclophilins catalyze cis-to-trans isomerization of a proline peptide bond in a nitroanalide-coupled peptide substrate followed by cleavage of the trans-conformer peptide by α-chymotrypsin, release of the p-nitroaniline chromogen, and quantitation of p-nitroaniline by absorbance at 410 nm. All solutions were pre-equilibrated, and all assays were conducted at 4°C. Plates were preloaded with 5 µl peptide solution consisting of N-succinyl-alanine-alanine-proline-phenylalanine-p-nitroanilide (S7388; Sigma-Aldrich) and 400 mM lithium chloride (310468; Sigma-Aldrich) in anhydrous trifluoroethanol (T63002; Sigma-Aldrich). […] Absorbance measurements with a BMG Polarstar Galaxy plate reader were begun immediately and made at 6-second intervals for 6 minutes. Reaction curves were represented by increases in optical density 410 nm as a function of reaction time. For Ki determinations, initial reaction velocities were obtained from the reaction curves and plotted relative to substrate concentration, and the curves were fitted to the enzyme competitive inhibition model (GraphPad Prism) to derive Ki, maximum velocity (Vmax), and Michaelis constant values. For IC50 determinations, the reaction curves were fitted to one-phase exponential association regressions to obtain first-order rate constants.

In another data set the target is MRP2 (Homo sapiens, UniProt Q92887).
Chain of MRP2 (Q92887 whole entry): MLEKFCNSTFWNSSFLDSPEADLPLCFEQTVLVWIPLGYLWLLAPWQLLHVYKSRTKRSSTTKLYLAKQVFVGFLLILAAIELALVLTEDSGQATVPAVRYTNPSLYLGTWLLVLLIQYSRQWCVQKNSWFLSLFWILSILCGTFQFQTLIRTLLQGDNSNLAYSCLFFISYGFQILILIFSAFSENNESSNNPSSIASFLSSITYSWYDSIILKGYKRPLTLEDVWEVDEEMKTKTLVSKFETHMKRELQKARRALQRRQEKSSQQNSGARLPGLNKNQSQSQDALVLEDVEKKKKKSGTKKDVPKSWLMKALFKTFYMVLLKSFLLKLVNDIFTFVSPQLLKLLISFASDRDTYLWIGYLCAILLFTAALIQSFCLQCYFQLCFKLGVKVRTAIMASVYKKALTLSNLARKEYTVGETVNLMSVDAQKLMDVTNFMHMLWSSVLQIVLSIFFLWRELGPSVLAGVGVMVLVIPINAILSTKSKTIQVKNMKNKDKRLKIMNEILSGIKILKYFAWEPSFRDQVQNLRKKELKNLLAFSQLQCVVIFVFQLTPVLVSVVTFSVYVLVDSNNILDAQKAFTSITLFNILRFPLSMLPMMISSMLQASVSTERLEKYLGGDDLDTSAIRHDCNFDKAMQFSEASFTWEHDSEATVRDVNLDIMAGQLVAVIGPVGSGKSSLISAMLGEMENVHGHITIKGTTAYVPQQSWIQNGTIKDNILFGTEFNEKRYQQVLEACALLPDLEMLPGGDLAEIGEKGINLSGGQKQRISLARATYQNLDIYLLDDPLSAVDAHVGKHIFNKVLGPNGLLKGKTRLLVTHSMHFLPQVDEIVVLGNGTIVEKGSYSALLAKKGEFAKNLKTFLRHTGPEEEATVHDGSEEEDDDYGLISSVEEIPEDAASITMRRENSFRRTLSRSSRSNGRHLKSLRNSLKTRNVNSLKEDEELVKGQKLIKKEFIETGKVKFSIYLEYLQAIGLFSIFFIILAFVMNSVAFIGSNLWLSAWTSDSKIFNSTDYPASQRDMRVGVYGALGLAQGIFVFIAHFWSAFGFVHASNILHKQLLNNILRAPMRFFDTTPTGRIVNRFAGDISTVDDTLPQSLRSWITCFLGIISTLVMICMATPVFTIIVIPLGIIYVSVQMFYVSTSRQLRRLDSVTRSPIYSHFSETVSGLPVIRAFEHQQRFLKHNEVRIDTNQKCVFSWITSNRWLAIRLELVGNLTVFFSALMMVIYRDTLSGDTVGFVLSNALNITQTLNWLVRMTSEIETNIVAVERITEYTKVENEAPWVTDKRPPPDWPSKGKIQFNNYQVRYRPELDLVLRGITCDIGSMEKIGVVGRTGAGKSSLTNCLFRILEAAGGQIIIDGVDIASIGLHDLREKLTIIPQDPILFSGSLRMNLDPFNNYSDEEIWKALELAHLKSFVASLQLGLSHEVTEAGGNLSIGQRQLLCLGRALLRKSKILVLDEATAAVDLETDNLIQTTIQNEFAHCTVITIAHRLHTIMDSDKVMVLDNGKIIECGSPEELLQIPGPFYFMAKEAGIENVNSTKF
The conditions of data set [1]: rat, in vivo, po.
Description: Male and female Sprague–Dawley rats and male C57BL/6 mice from the carbon tetrachloride and NASH studies were used to evaluate CRV431 pharmacokinetics and distribution. […] Terminal whole blood and livers were collected and frozen until drug extraction. Liver samples were homogenized in PBS or 1% formic acid (0.1 g–0.4 g liver sample per ml solvent) with bead-based homogenizers (TissueLyser or Beadruptor). […] Sample and standard compounds were extracted from blood and liver homogenates using a zinc sulfate/methanol precipitation method and quantified by liquid chromatography–electrospray ionization–mass spectrometry, as previously described ([Trepanier et al., 2018]). Liver CRV431 concentrations were normalized to the masses of the liver samples.
CRV431 pharmacokinetics in rats. […] Whole–blood concentrations of the two compounds were determined at the indicated time points. […] Means and S.D. shown.
For another data set, the target named is OATP1B1 (Homo sapiens, UniProt Q9Y6L6).
Chain of OATP1B1 (Q9Y6L6 whole entry): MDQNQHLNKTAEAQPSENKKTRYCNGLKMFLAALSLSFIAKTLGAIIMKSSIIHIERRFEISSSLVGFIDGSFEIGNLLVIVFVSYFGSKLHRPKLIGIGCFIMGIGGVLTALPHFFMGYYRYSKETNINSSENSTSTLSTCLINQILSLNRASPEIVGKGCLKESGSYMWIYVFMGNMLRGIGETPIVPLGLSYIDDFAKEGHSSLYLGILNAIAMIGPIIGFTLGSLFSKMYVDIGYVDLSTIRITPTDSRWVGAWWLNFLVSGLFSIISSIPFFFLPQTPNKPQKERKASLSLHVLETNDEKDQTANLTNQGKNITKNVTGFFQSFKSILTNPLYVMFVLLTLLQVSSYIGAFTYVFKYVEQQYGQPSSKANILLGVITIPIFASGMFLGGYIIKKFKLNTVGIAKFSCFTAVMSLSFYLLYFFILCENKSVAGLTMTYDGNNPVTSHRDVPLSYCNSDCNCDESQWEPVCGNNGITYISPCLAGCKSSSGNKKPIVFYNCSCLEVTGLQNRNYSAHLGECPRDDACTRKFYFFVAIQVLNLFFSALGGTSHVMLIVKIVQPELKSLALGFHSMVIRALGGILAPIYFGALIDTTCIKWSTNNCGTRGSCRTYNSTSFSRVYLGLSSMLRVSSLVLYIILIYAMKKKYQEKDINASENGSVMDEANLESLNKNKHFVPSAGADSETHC
The next data set concerns the target T3, NTCP (Homo sapiens, UniProt Q14973).
T3 construct: expressed in transfected cells
The data set can be described thus: Drug transporter inhibition, NTCP. The format is in vitro ADME.

The target of the next data set is P-gp (Homo sapiens, UniProt P08183).
A further data set deals with OAT1 (Homo sapiens, UniProt Q4U2R8). The experiment in a line: Drug transporter inhibition, OAT1. The note with it: OAT1, HEK293.
Chain of OAT1 (Q4U2R8 whole entry): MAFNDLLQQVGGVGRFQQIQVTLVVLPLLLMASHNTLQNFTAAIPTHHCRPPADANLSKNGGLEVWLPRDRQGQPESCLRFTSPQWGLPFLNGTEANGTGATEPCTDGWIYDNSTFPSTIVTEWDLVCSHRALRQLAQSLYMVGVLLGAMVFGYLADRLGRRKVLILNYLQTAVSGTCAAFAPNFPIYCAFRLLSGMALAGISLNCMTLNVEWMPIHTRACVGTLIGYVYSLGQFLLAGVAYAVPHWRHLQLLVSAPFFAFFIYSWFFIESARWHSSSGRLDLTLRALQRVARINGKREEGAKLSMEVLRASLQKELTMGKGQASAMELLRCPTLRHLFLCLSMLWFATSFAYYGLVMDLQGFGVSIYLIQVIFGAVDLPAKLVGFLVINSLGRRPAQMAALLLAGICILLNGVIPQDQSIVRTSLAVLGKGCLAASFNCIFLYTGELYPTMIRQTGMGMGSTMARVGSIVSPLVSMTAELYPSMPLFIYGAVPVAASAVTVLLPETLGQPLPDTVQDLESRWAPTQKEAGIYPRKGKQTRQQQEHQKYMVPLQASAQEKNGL
In data set [2] the test system is IL-2 promoter luciferase reporter, Jurkat cells. The experiment in a line: IL-2 luciferase reporter assay in Jurkat cells. The conditions noted are these: for IC50: 18 hours, read-out: IL-2–Luc IC50; for IL-2–Luc IC50 Fold Difference: CRV431 vs CsA. Type of data set: cell-based, human. The method, then:
The luciferase reporter assays employed Jurkat cells stably transfected with gene constructs consisting of a luciferase gene plus human nuclear factor of activated T cells (NFAT) or interleukin-2 (IL-2) promoter elements (J1621 and J1651; Promega). The NFAT construct contained a DNA binding site only for NFAT, whereas the IL-2 construct contained binding sites for NFAT, nuclear factor κ-light-chain-enhancer of activated B cells, and activating protein-1 transcription factors. Cells were cultured in 96-well plates at 100,000 cells/well in RPMI 1640 medium (11875-093; Thermo Fisher) supplemented with 5% FBS (12483020; Thermo Fisher). Cells were activated either by precoating high protein-binding plates with 3 µg/ml anti-CD3 (UCHT clone) and anti-CD28 (CD28.2 clone) (BioLegend LEAF antibodies) or by adding phorbol myristate acetate (PMA; P8139; Sigma-Aldrich) to 15 ng/ml and A23187 ionophore (C7522; Sigma-Aldrich) to 0.75 µM. […] Cells were harvested after 18 hours of incubation, and luciferase was quantified with Promega Bio-Glo reagent (G7940; Promega) and measurement with a luminescence plate reader. Data were normalized to DMSO controls (100% stimulation) and to wells without antibody or PMA plus A23187 stimulation.
(In general: In a reporter assay the amount or activity of a reporter protein is the signal.)

SMILES strings stand for the structures. Read-outs that look alike come from different tables or passages of the source. Square brackets hold non-standard residues; d marks the D form. Peptide text beside a SMILES is read from it. NMeThr(4R-Me,4-(CH2)6NHAc) = CN[C@H](C(=O)O)[C@H](O)[C@H](C)CCCCCCNC(C)=O; NMeL = CN[C@@H](CC(C)C)C(=O)O; NMeV = CN[C@H](C(=O)O)C(C)C; dNMeA = CN[C@H](C)C(=O)O; Abu = CC[C@H](N)C(=O)O

T2 sequence (P62937 whole entry): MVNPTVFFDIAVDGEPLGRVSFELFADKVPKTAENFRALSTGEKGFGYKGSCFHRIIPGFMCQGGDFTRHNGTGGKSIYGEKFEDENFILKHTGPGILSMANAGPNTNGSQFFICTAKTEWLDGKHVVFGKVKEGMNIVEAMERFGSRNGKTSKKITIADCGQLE
T3 sequence (Q14973 whole entry): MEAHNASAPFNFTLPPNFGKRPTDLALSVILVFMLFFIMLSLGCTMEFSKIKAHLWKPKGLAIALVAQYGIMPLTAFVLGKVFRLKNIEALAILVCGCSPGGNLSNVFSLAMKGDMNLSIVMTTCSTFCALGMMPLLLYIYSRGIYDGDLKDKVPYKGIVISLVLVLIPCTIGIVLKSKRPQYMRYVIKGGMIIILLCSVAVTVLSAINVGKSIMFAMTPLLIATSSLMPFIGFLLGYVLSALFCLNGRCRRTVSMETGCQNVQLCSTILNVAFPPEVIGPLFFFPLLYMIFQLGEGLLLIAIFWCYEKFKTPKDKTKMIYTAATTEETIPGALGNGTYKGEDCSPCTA
Protocol for MATE-2: Inhibition of all other transporters was assessed by measuring substrate accumulation in cells recombinantly expressing the transporter. Known inhibitors of each transporter were used as positive controls for the assays. […] Specific, ATP-dependent uptake was determined by subtracting uptake in negative control vesicles and cells not expressing the transporters, and secondly by subtracting uptake in the absence of ATP in the assays. Specific, ATP-dependent uptake was plotted as a function of CRV431 concentrations and fitted to nonlinear regressions to obtain IC50 values.
Protocol for MRP2: (§1) Bile salt export pump (BSEP) and multidrug resistance protein (MRP)1 inhibition was assessed by measuring substrate accumulation in membrane vesicles prepared from insect Sf9 cells and recombinantly expressing BSEP and MRP2 (Genomembrane). Inhibition of all other transporters was assessed by measuring substrate accumulation in cells recombinantly expressing the transporter. Known inhibitors of each transporter were used as positive controls for the assays. […] Specific, ATP-dependent uptake was determined by subtracting uptake in negative control vesicles and cells not expressing the transporters, and secondly by subtracting uptake in the absence of ATP in the assays. Specific, ATP-dependent uptake was plotted as a function of CRV431 concentrations and fitted to nonlinear regressions to obtain IC50 values.
Protocol for NTCP: (§2) Briefly, PGP and breast cancer resistance protein inhibition was assessed by measuring the bidirectional transport of substrates across cell monolayers in transwell culture plates. Efflux ratios were represented as (apical-to-basal flux)/(basal-to-apical flux), and efflux ratios were plotted relative to CRV431 concentration to derive IC50 values. Bile salt export pump (BSEP) and multidrug resistance protein (MRP)1 inhibition was assessed by measuring substrate accumulation in membrane vesicles prepared from insect Sf9 cells and recombinantly expressing BSEP and MRP2 (Genomembrane). Inhibition of all other transporters was assessed by measuring substrate accumulation in cells recombinantly expressing the transporter. Known inhibitors of each transporter were used as positive controls for the assays. […] Specific, ATP-dependent uptake was determined by subtracting uptake in negative control vesicles and cells not expressing the transporters, and secondly by subtracting uptake in the absence of ATP in the assays. Specific, ATP-dependent uptake was plotted as a function of CRV431 concentrations and fitted to nonlinear regressions to obtain IC50 values.
Protocol for OAT1: as §1
Protocol for OAT3: as §1
Protocol for OATP1B1: as §2
Protocol for P-gp: as §2

As usually defined, the CC50 is the concentration giving 50% cytotoxicity. A high value points to better tolerance by the cells. As a reminder, the IC50 is the concentration at which inhibition is half-maximal. What is called Ki is the dissociation constant of the complex between target and ligand, obtained from inhibition or displacement. As to `CC[C@@H]1NC(=O)[C@H]([C@H](O)[C@H](C)CCCCCCNC(C)=O)N(C)C(=O)[C@H](C(C)C)N(C)C(=O)[C@H](CC(C)C)N(C)C(=O)[C@H](CC(C)C)N(C)C(=O)[C@@H](C)NC(=O)[C@H](C)NC(=O)[C@H](CC(C)C)N(C)C(=O)[C@H](C(C)C)NC(=O)[C@H](CC(C)C)N(C)C(=O)[C@@H](C)N(C)C1=O` [CRV431] (cyclo(A[dA][NMeL][NMeL][NMeV][NMeThr(4R-Me,4-(CH2)6NHAc)][Abu][dNMeA][NMeL]V[NMeL])), the CC50 in the data set with six human cell types came to 23.6 µM. In addition, the lethality in the data set with six human cell types (at the highest concentrations tested (up to 80 µM), 3 days) was found to be 100%. The “CRV431 Inhibitory Potency vs. CsA” value was greater than 21× more at OAT3, “Same (no inhibition)” at MATE-2 and “Same (no inhibition)” at OAT1. In addition, the IC50 against OAT3 was 473 nM; at recombinant Cyp A (PPIA) (PPIA (Cyp A), one peptide substrate concentration) it was 2.5 nM; at MRP2, 20.7 µM; on OATP1B1, 300 nM; on NTCP (NTCP, HEK293) it was 45.3 µM; at P-gp, greater than 50 µM. In addition, the half-maximal inhibitory concentration (IC50) against OAT1 is greater than 50 µM; in data set [2] (CD3 + CD28 antibodies stimulation) it was 312 nM; in data set [2] (PMA + A23187 stimulation) it was 300 nM. Besides, the “Maximum enzyme velocity (Vmax) in the presence of compound” value on recombinant Cyp A (PPIA) is 5.3 µmol/s per nanomole Cyp A. At recombinant Cyp A (PPIA) (CsA IC50 vs CRV431 IC50, PPIA), the “IC50 Fold Difference” value is on record as 10.2. Moreover, the Ki on recombinant Cyp A (PPIA) (competitive enzyme inhibition model, multiple substrate concentrations, 4°C, read-out: Ki toward cyclophilin A) was 1.3 nM. Also, the “fold higher potency of CRV431 vs CsA (Ki)” value at recombinant Cyp A (PPIA) (ratio of Ki values) is given as 13 fold. Also, the “half-life (in words)” value in [1] is recorded as “relatively long CRV431 half-life that exceeded that of CsA”. Further, the “fold lower activity than CsA toward sodium-dependent taurocholic acid cotransporting polypeptide” value at NTCP worked out at 45 fold. Moreover, the “IL-2–Luc IC50 Fold Difference” value is recorded as 34.6 in data set [2] (CD3 + CD28 antibodies) and 36.9 in data set [2] (PMA + A23187). The “times less potent than CsA on Jurkat–IL-2 cells” value in [2] (ratio of CRV431 and CsA IC50) is listed as “approximately 35 times”.

Source of the values: paper PMC6815936, “A Pan-Cyclophilin Inhibitor, CRV431, Decreases Fibrosis and Tumor Development in Chronic Liver Disease Models” (The Journal of Pharmacology and Experimental Therapeutics, 2019).
